Assays:
[1] = biological target: T1, APOL1 G2 (Homo sapiens, UniProt O14791, DEL388-389); assay: APOL1 G2 FLIPR calcium influx assay (HEK T-REx/GCaMP6f/APOL1 G2 K6.3 cells); format: cell-based; conditions: HEK293 clone expressing GCaMP6f, doxycycline-induced APOL1 G2; prevention of calcium influx; geometric mean of at least 2 assay runs
T1 construct: expressed in transfected cells; host or cells: HEK293/T-REx APOL1 G2 clone #2, doxycycline-inducible
T1 sequence (O14791 with tags, fused parts or gaps DEL388-389): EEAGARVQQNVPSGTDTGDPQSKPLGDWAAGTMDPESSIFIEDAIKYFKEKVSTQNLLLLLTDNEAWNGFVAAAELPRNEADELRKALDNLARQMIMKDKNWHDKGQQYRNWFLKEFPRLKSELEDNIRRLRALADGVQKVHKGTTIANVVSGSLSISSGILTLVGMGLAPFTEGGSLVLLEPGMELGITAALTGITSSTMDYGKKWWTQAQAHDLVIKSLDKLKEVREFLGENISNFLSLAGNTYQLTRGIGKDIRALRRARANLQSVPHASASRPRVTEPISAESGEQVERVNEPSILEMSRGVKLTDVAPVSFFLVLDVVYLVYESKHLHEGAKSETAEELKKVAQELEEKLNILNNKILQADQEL
Summary of the method: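 Cells express GCaMP6f stably and APOL1 G2 after a 6 h doxycycline induction. Duplicate 8-point dilutions sit 10 min at room temperature in Ca2+-free Tyrode's (pH 7.4), then Ca2+ is injected to 5 mM final and the FLIPR signal recorded. AC50s are geometric means across ≥2 days.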

[2] = biological target: T1, APOL1 G2; assay: APOL1 G2 HEK293 rescue of cell death caused by overexpression of APOL1 (CellTiter-Glo); format: cell-based; conditions: HEK293/T-REx APOL1 G2 clone #2, doxycycline induction, 17 hours, CellTiter-Glo luminescence; reversal of cell death; geometric mean of at least 2 assay runs
Summary of the method: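 Viability read by CellTiter-Glo luminescence after 17 h, 37 °C, in HEK293/T-REx cells expressing APOL1 G2 on 6 ng/mL doxycycline, 5,000 cells/well. Compounds tested as duplicate 8-point, 3-fold dilutions, 0.5% DMSO final; four-parameter logistic EC50, usually geometric mean of ≥2 days.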

AC50 [1] | SMILES | EC50 [2]
1.25 µM | CS(=O)(=O)c1ccc(OC[C@@H]2CN(C(CO)Cc3cccc(Cl)c3)CCN2)cc1 (single isomer, unassigned) [Compound 118, (2R or 2S)-3-(3-chlorophenyl)-2-[(3S)-3-[(4-methanesulfonylphenoxy)methyl]piperazin-1-yl]propan-1-ol] | > 10 µM
2.33 µM | CS(=O)(=O)c1ccc(OC[C@@H]2CN(C(CO)Cc3cccc(Cl)c3)CCN2)cc1 (single isomer, unassigned) [Compound 119, (2S or 2R)-3-(3-chlorophenyl)-2-[(3S)-3-[(4-methanesulfonylphenoxy)methyl]piperazin-1-yl]propan-1-ol] | 0.633 µM
1.11 µM | C[C@@H]1CN(C(CO)Cc2cc(Cl)cc(C#N)c2)C[C@H]1COc1ccc(S(C)(=O)=O)cc1 (single isomer, unassigned) [Compound 121, 3-chloro-5-[(2R or 2S)-3-hydroxy-2-[(3S,4S)-3-[(4-methanesulfonylphenoxy)methyl]-4-methylpyrrolidin-1-yl]propyl]benzonitrile] | > 10 µM
1.11 µM | C[C@@H]1CN(C(CO)Cc2cc(Cl)cc(C#N)c2)C[C@H]1COc1ccc(S(C)(=O)=O)cc1 (single isomer, unassigned) [Compound 122, 3-chloro-5-[(2S or 2R)-3-hydroxy-2-[(3S,4S)-3-[(4-methanesulfonylphenoxy)methyl]-4-methylpyrrolidin-1-yl]propyl]benzonitrile] | 0.789 µM
0.201 µM | CS(=O)(=O)c1ccc(OCC2C[C@@H](CO)N(CCc3cccc(Cl)c3)C2)cc1 (single isomer, unassigned) [Compound 123, [(2S,4S or 4R)-1-[2-(3-chlorophenyl)ethyl]-4-[(4-methanesulfonylphenoxy)methyl]pyrrolidin-2-yl]methanol] | 0.393 µM
4.92 µM | CS(=O)(=O)c1ccc(OCC2C[C@@H](CO)N(CCc3cccc(Cl)c3)C2)cc1 (single isomer, unassigned) [Compound 124, [(2S,4R or 4S)-1-[2-(3-chlorophenyl)ethyl]-4-[(4-methanesulfonylphenoxy)methyl]pyrrolidin-2-yl]methanol] | 5.31 µM
2.21 µM | CS(=O)(=O)c1ccc(OC[C@H]2C[C@H]3CCCC(Cc4cc(Cl)cc(C#N)c4)N3C2)cc1 (single isomer, unassigned) [Compound 125, 3-{[(2S,5R or 5S,8aR)-2-[(4-methanesulfonylphenoxy)methyl]-octahydroindolizin-5-yl]methyl}-5-chlorobenzonitrile] | 0.449 µM
2.22 µM | C[C@@H]1CN(CC(CO)c2cc(Cl)cc(C#N)c2)C[C@H]1COc1ccc(S(C)(=O)=O)cc1 (single isomer, unassigned) [Compound 127, 3-chloro-5-[(2R or 2S)-1-hydroxy-3-[(3S,4S)-3-[(4-methanesulfonylphenoxy)methyl]-4-methylpyrrolidin-1-yl]propan-2-yl]benzonitrile] | > 10 µM
1.51 µM | C[C@@H]1CN(CC(CO)c2cc(Cl)cc(C#N)c2)C[C@H]1COc1ccc(S(C)(=O)=O)cc1 (single isomer, unassigned) [Compound 128, 3-chloro-5-[(2S or 2R)-1-hydroxy-3-[(3S,4S)-3-[(4-methanesulfonylphenoxy)methyl]-4-methylpyrrolidin-1-yl]propan-2-yl]benzonitrile] | 0.711 µM
4.25 µM | C[C@@H]1C[C@H](COc2ccc(S(C)(=O)=O)cc2)CN1CC(CO)c1cc(Cl)cc(C#N)c1 (single isomer, unassigned) [Compound 129, 3-chloro-5-[(2R or 2S)-1-hydroxy-3-[(2R,4S)-4-[(4-methanesulfonylphenoxy)methyl]-2-methylpyrrolidin-1-yl]propan-2-yl]benzonitrile] | 2.14 µM
1.94 µM | C[C@@H]1C[C@H](COc2ccc(S(C)(=O)=O)cc2)CN1CC(CO)c1cc(Cl)cc(C#N)c1 (single isomer, unassigned) [Compound 130, 3-chloro-5-[(2S or 2R)-1-hydroxy-3-[(2R,4S)-4-[(4-methanesulfonylphenoxy)methyl]-2-methylpyrrolidin-1-yl]propan-2-yl]benzonitrile] | 0.303 µM
0.446 µM | CS(=O)(=O)c1ccc(OC[C@@H]2CCCN(C3CCc4ccc(Cl)cc4C3)C2)cc1 (single isomer, unassigned) [Compound 132, (3R)-1-[(2S or 2R)-7-chloro-1,2,3,4-tetrahydronaphthalen-2-yl]-3-[(4-methanesulfonylphenoxy)methyl]piperidine] | 0.924 µM
1.15 µM | CS(=O)(=O)c1ccc(OC[C@@H]2CCCN(C3CCc4ccc(Cl)cc4C3)C2)cc1 (single isomer, unassigned) [Compound 133, (3R)-1-[(2R or 2S)-7-chloro-1,2,3,4-tetrahydronaphthalen-2-yl]-3-[(4-methanesulfonylphenoxy)methyl]piperidine] | 1.91 µM
0.601 µM | C[C@@H]1C[C@H](COc2ccc(S(C)(=O)=O)cc2)CN1C1CCc2c(C#N)cccc2C1 (single isomer, unassigned) [Compound 134, (6R or 6S)-6-[(2R,4S)-4-[(4-methanesulfonylphenoxy)methyl]-2-methylpyrrolidin-1-yl]-5,6,7,8-tetrahydronaphthalene-1-carbonitrile] | 0.292 µM
0.576 µM | C[C@@H]1C[C@H](COc2ccc(S(C)(=O)=O)cc2)CN1C1CCc2c(C#N)cccc2C1 (single isomer, unassigned) [Compound 135, (6S or 6S)-6-[(2R,4S)-4-[(4-methanesulfonylphenoxy)methyl]-2-methylpyrrolidin-1-yl]-5,6,7,8-tetrahydronaphthalene-1-carbonitrile] | 0.0842 µM
0.707 µM | C[C@@H]1C[C@H](COc2ccc(S(C)(=O)=O)cc2)CN1C1CCc2ccc(C#N)cc2C1 (single isomer, unassigned) [Compound 136, (7S or 7R)-7-[(2R,4S)-4-[(4-methanesulfonylphenoxy)methyl]-2-methylpyrrolidin-1-yl]-5,6,7,8-tetrahydronaphthalene-2-carbonitrile] | 0.704 µM
0.222 µM | C[C@@H]1C[C@H](COc2ccc(S(C)(=O)=O)cc2)CN1C1CCc2ccc(C#N)cc2C1 (single isomer, unassigned) [Compound 137, (7R or 7S)-7-[(2R,4S)-4-[(4-methanesulfonylphenoxy)methyl]-2-methylpyrrolidin-1-yl]-5,6,7,8-tetrahydronaphthalene-2-carbonitrile] | 0.0358 µM
1.08 µM | C[C@@H]1C[C@H](COc2ccc(S(C)(=O)=O)cc2)CN1C1CCc2c(Cl)cccc2C1 (single isomer, unassigned) [Compound 138, (2R,4S)-1-[(2R or 2S)-5-chloro-1,2,3,4-tetrahydronaphthalen-2-yl]-4-[(4-methanesulfonylphenoxy)methyl]-2-methylpyrrolidine] | 0.149 µM
1.26 µM | C[C@@H]1C[C@H](COc2ccc(S(C)(=O)=O)cc2)CN1C1CCc2c(Cl)cccc2C1 (single isomer, unassigned) [Compound 139, (2R,4S)-1-[(2S or 2R)-5-chloro-1,2,3,4-tetrahydronaphthalen-2-yl]-4-[(4-methanesulfonylphenoxy)methyl]-2-methylpyrrolidine] | 0.26 µM
0.16 µM | CC(c1ccc(OC[C@@H]2CN(CCc3cccc(Cl)c3)CCN2)cc1)S(C)(=O)=O (single isomer, unassigned) [Compound 141, (3S)-1-[2-(3-chlorophenyl)ethyl]-3-({4-[(1R) or (1S)-1-methanesulfonylethyl]phenoxy}methyl)piperazine] | 0.234 µM
0.703 µM | CC(c1ccc(OC[C@@H]2CN(CCc3cccc(Cl)c3)CCN2)cc1)S(C)(=O)=O (single isomer, unassigned) [Compound 142, (3S)-1-[2-(3-chlorophenyl)ethyl]-3-({4-[(1S) or (1R)-1-methanesulfonylethyl]phenoxy}methyl)piperazine] | 0.231 µM
0.265 µM | C[C@@H]1CN(CC(O)c2cccc(Cl)c2)C[C@H]1COc1ccc(S(C)(=O)=O)cc1 (single isomer, unassigned) [Compound 144, (1S) or (1R)-1-(3-chlorophenyl)-2-[trans-3-[(4-methanesulfonylphenoxy)methyl]-4-methylpyrrolidin-1-yl]ethan-1-ol] | 0.289 µM
0.0397 µM | C[C@@H]1C[C@H](COc2cnc(S(C)(=O)=O)cn2)CN1CCc1cccc(C#N)c1 [Compound 1, 3-(2-((2R,4S)-2-methyl-4-(((5-(methylsulfonyl)pyrazin-2-yl)oxy)methyl)pyrrolidin-1-yl)ethyl)benzonitrile] | 0.0537 µM
